Columns and labels:
[1] = AUClast in BALB/c mouse at 10 mg/kg, po measured up to 24 hrs by LC-MS/MS analysis; format: ADME, organism-based; parameters: route oral, dose 10 mg/kg, time <=24; conditions: in vivo
[2] = molecular target: Poly [ADP-ribose] polymerase 2 (Homo sapiens, UniProt Q9UGN5); assay: Inhibition of N-terminal GST-tagged human PARP2 (2 to 583 residues) expressed in baculovirus infected Sf9 cells using histone mixture (H2A and H2B) and biotinylated NAD+ as substrate in presence of activated DNA incubated for 60 mins by chemiluminescence assay
Poly [ADP-ribose] polymerase 2, sequence (Q9UGN5 whole entry, the tested form may be a part): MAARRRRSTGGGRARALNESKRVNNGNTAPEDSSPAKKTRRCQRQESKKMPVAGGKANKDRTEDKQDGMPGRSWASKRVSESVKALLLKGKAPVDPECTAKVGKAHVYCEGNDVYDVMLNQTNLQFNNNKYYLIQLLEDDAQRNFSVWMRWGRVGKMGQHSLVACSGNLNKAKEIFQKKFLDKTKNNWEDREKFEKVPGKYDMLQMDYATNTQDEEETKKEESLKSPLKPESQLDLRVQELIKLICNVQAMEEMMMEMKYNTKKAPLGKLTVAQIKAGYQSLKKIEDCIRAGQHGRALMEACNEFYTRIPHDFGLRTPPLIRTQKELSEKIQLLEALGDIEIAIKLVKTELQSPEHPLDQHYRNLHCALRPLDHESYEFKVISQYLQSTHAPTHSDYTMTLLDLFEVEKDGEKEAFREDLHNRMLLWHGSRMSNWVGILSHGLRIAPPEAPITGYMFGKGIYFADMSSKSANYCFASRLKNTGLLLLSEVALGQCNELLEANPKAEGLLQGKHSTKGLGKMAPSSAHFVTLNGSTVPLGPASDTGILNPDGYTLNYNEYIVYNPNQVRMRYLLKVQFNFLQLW

[3] = Protein binding in mouse plasma; format: ADME, cell-free; conditions: read-out: PPB (converted)
[4] = Metabolic stability of the compound in human plasma measured up to 4 hrs; format: ADME, cell-free; conditions: read-out: Stabilty
[5] = molecular target: Poly [ADP-ribose] polymerase tankyrase-2 (Homo sapiens, UniProt Q9H2K2); assay: Inhibition of TNKS2 (unknown origin)
Poly [ADP-ribose] polymerase tankyrase-2, sequence (Q9H2K2 whole entry): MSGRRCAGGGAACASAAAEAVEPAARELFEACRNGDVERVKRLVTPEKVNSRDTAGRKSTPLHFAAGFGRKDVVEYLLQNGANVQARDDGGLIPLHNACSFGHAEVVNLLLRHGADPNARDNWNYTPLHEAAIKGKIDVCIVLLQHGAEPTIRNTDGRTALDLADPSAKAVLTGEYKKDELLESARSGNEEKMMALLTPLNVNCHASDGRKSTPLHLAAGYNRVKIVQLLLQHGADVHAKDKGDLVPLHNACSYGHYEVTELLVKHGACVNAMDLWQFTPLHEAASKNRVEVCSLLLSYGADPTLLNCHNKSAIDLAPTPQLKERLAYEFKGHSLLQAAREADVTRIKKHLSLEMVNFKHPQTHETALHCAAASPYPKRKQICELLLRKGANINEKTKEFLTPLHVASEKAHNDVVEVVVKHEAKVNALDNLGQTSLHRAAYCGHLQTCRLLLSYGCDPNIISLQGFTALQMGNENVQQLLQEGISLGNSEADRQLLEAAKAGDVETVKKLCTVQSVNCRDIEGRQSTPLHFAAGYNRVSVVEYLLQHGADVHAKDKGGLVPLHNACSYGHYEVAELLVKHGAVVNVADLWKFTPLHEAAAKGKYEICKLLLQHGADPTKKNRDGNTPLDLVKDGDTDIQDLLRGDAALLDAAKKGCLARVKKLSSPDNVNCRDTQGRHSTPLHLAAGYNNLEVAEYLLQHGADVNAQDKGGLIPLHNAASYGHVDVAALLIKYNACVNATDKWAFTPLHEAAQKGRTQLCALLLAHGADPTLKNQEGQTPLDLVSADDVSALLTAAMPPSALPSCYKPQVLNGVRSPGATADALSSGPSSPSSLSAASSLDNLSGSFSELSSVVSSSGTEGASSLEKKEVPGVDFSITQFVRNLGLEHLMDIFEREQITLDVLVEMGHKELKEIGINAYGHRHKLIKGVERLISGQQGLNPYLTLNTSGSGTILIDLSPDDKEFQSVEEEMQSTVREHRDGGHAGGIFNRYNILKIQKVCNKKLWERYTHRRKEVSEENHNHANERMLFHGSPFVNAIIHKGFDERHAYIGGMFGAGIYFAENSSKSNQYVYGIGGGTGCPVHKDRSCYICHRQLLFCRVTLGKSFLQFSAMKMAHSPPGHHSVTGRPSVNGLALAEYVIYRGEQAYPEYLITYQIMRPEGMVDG

MDA-MB-436 [6] = assay: Potentiation of anticancer activity against human MDA-MB-436 cells harboring BRCA mutant xenografted in SCID/nude mouse assessed as tumor growth inhibition at 0.15 mg/kg, po bid for 12 days co-administered with TMZ measured up to 9 weeks post drug administration; format: functional; conditions: MDA-MB-436, po, 288 h, time 12 day
[7] = Cmax in BALB/c mouse at 1 mg/kg, iv measured up to 24 hrs by LC-MS/MS analysis; format: ADME, organism-based; parameters: route intravenous, dose 1 mg/kg, time <=24; conditions: in vivo
[8] = molecular target: Adrenergic receptor alpha-1 (Homo sapiens) (UniProt P35348+P25100+P35368); assay: Binding affinity to alpha1 adrenoceptor (unknown origin) at 10 uM; format: protein assay
[9] = Protein binding in human plasma; format: ADME, cell-free; conditions: read-out: PPB (converted)
[10] = Half life in BALB/c mouse at 1 mg/kg, iv measured up to 24 hrs by LC-MS/MS analysis; format: ADME, organism-based; conditions: in vivo
[11] = AUClast in BALB/c mouse at 1 mg/kg, iv measured up to 24 hrs by LC-MS/MS analysis; format: ADME, organism-based; parameters: route intravenous, dose 1 mg/kg, time <=24; conditions: in vivo
CAPAN-1 = assay: Antitumor activity against human CAPAN1 cells xenografted in SCID/nude mouse assessed as tumor growth inhibition at 0.3 mg/kg, po bid measured up to 5 weeks post drug administration; format: functional; conditions: CAPAN-1, po, 840 h, time weeks <=5
CYP2D6 = CYP2D6 (Homo sapiens, UniProt P10635); assay: Inhibition of CYP2D6 (unknown origin) at 10 uM relative to control; format: ADME
CYP2D6, sequence (P10635 whole entry): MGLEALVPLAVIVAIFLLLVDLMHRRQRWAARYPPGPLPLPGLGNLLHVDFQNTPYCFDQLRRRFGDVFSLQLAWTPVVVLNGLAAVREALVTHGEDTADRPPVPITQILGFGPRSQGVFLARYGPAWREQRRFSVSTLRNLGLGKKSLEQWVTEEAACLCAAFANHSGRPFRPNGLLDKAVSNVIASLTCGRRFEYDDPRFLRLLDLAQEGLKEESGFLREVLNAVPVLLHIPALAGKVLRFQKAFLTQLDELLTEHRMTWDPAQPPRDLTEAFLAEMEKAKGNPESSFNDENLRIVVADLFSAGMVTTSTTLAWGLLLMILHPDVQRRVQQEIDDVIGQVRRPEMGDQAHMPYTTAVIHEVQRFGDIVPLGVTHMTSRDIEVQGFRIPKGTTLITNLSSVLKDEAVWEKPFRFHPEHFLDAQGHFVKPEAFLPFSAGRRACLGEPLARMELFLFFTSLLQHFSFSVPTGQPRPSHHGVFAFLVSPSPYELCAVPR

MDA-MB-436 [12] = assay: Anticancer activity against human MDA-MB-436 cells harboring BRCA mutant xenografted in SCID/nude mouse assessed as tumor growth regression at 0.05 mg/kg, po bid and measured up to 5 weeks post-drug administration; format: functional; conditions: MDA-MB-436, po, 840 h, time weeks <=5
SK-ES1 = assay: Antitumor activity against human SK-ES-1 cells xenografted in SCID/nude mouse assessed as tumor growth inhibition at 0.45 mg/kg, po bid measured up to 5 weeks post drug administration; format: functional; conditions: 840 h, time weeks <=5
[13] = molecular target: Poly [ADP-ribose] polymerase 1 (Homo sapiens, UniProt P09874); assay: Inhibition of PARP1 in human MDA-MB-436 cells assessed as inhibition of PARylation at 10 nM incubated for 1 hr by chemiluminescence assay; format: cell-based
Poly [ADP-ribose] polymerase 1, sequence (P09874 whole entry): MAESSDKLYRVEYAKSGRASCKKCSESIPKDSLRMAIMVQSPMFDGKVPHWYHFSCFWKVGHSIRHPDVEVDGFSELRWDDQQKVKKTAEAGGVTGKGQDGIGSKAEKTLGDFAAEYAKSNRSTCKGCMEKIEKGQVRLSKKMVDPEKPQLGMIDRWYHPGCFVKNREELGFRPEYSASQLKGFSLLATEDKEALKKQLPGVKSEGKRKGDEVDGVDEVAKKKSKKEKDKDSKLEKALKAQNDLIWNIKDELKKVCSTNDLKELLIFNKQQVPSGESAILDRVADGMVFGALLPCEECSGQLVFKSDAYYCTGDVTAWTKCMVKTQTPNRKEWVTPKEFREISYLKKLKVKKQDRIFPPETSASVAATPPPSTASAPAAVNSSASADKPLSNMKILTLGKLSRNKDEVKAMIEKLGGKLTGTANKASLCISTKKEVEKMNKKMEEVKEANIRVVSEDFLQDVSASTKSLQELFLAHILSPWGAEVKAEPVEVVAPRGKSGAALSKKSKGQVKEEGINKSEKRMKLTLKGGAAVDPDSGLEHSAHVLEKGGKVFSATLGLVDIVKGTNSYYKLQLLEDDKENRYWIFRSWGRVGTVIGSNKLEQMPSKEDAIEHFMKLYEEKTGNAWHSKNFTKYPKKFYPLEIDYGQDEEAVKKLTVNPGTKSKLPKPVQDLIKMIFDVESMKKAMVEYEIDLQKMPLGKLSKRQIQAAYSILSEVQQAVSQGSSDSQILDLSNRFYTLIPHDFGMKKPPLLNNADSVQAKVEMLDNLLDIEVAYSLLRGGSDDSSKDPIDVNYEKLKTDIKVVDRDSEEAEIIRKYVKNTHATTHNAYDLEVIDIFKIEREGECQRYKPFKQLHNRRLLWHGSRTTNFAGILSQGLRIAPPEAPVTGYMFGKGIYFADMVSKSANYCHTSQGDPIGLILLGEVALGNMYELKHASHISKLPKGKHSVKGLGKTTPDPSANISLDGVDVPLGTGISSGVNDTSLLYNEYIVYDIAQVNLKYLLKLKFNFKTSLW

[14] = Oral bioavailability in BALB/c mouse at 10 mg/kg measured up to 24 hrs by LC-MS/MS analysis; format: ADME, organism-based; conditions: in vivo
[15] = Toxicity against SCID/nude mouse xenografted with human CAPAN-1 cells harboring BRCA mutant assessed as body weight loss at 0.15 mg/kg, po bid for 12 days co-administered with 35 mg/kg, po TMZ; format: organism-based; conditions: in vivo, 288 h, time 12 day
[16] = Toxicity in rat assessed as NOAEL; conditions: in vivo

N#Cc1ccc(N2CCN([C@H]3C=C(c4cc5ncccc5c(=O)[nH]4)CC3)CC2)cc1
AUC(0-t) at 24 h [1]: 403 µM·h | IC50 [2]: 8.1 nM | fraction unbound [3]: 0.074 | remaining at 4 h [4]: 80% | IC50 [5]: 74 nM | inhibition in vivo at 0.15 mg/kg (MDA-MB-436 [6]): > 90% | Cmax [7]: 11 µM | Activity [8]: 70% | fraction unbound [9]: 0.017 | half-life [10]: 5.1 h | AUC(0-t) at 24 h [11]: 94 µM·h | inhibition in vivo at 0.3 mg/kg (CAPAN-1): 49.6% | inhibition at 10 µM (CYP2D6): ≤ 23% | inhibition in vivo at 0.05 mg/kg (MDA-MB-436 [12]): 83% | inhibition in vivo at 0.45 mg/kg (SK-ES1): 20% | inhibition [13]: 82% | bioavailability [14]: 43% | Activity [15]: Non-Toxic | NOAEL [16]: 15 mg/kg/day
